We go through six compounds from US11802107B2, “Compounds and methods of use” (Signum Biosciences, Inc., priority 2017, dated 2023).

One experiment deals with Balb/C mice. Nature of the experiment: Oxazolone-induced delayed-type hypersensitivity (DTH) in vivo model. Summed up: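 Male Balb/C mice (8-10 weeks) sensitized with 3% oxazolone on dorsal skin, ear-challenged on day 7 with 0.5%; test materials at 3% w/v topically to both ear surfaces 30 min post-challenge in 60:40 H2O:EtOH. Ear edema and IL-4 ELISA of 6-mm biopsies at 24 h; % inhibition, n=5-15/group.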

A further experiment concerns IL-31. As to the kind of experiment: Anti-CD3/CD28+IL-4-induced IL-31 on PBMCs. It counts as cell-based. Particulars: Homo sapiens, PBMC, anti-CD3/CD28 beads + 50 ng/mL IL-4, 48 hours, ELISA, read-out: TCR/IL-4-PBMCs IL-31 IC50. As to the method:
(§1) Cryopreserved human Peripheral Blood Mononuclear cells (PBMCs) from healthy adult donors were obtained from Zen Bio, Inc (Cat No. SER-PBMC-F). Cells were cultured in 96-well plates with lymphocyte media (Cat No. LYMPH-1) and were pre-treated with test materials (≤100 μM) for 2 hours and later co-treated with test materials and anti-CD3/CD28 beads (Thermo-Fisher; Cat No. 11131D) and 50 ng/mL recombinant human IL-4 (R&D Systems® #204-IL) for 48 hours at 37° C. and 5% CO2. After incubation, cell media supernatants were harvested and used to measure cytokine levels (IL-22, IL-31) using ELISA kits (R&D Systems® #DY782, #DY2824). Results were represented as percent of inhibition relative to untreated and anti-CD3/CD28+IL-4 only treated cells. IC50 values were determined by non-linear regression analysis using the four-parameter logistic equation.
On the technique in general: ELISA stands for enzyme-linked immunosorbent assay.

Another experiment has as its system LPS-induced cytokines. Nature of the experiment: LPS-induced cytokines on PBMCs. It counts as cell-based, human. Particulars: LPS instead of anti-CD3/CD28 beads. As to the method: as §1, with “at 1:0.4 PBMC:bead ratio” for “and 50 ng/mL recombinant human IL-4 (R&D Systems® #204-IL)”, “24” for “48”, “(IL-4, IL-5, IL-10)” for “(IL-22, IL-31)”, “(BD Biosciences® #555194, #555157; R&D” for “(R&D”, “#DY317).” for “#DY782, #DY2824).”, “anti-CD3/CD28 beads-only” for “anti-CD3/CD28+IL-4 only”
By a similar method, but instead of anti-CD3/CD28 beads (Thermo-Fisher; Cat No. 11131D), compounds A, C, T and E were treated with LPS (Sigma Aldrich, Cat. No. LF4321) to measure inhibition of LPS-induced cytokines, and compounds C and T were treated with PHA-L (Sigma Aldrich, Cat No. 11249738001) to measure inhibition of PHA-induced cytokines.

The test system of another experiment is DEFB103 (hBD3). As to the kind of experiment: NHEK antimicrobial peptide gene expression, hBD3. Particulars: 10 μM, 24 hours, qPCR, normalized to GAPDH. It counts as cell-based, human. As to the method: Normal human epidermal keratinocytes (NHEKs) from neonatal donors were obtained from Thermo-Fisher (Cat No. C-001-5C). Cells were cultured in 6-well plates for 24 hours before treatments with EpiLife media (Cat No. MEPI500CA) supplemented with keratinocytes growth supplement (Cat No. 50015). On Day 2, media was removed and incubated with test materials (10 μM) for 24 hours at 37° C. and 5% CO2. On Day 3, total RNA was extracted from cells using the RNAqueous® kit (Ambion®; Cat No. 1912) and cDNA was obtained using the High Capacity RNA-to-cDNA kit (Applied Biosystems®; Cat No. 4387406). Quantitative PCR (qPCR) was performed using the TaqMan® Fast Advanced Master Mix (Applied Biosystems®; Cat No. 4444556) and specific TaqMan®-probes human gene primers DEFB4B (hBD2), DEFB103 (hBD3), HCAP18 and GAPDH to calculate the relative gene fold expression change per treatment. Gene expression analysis was performed using the comparative Ct method (also known as the 2-[delta][delta]Ct) approach by comparing the Ct values of the treated samples with the untreated samples and normalized to GAPDH gene expression as endogenous housekeeping gene. Results were represented as fold-expression/untreated cells.
(In general: Real-time PCR tracks product formation cycle by cycle.)

[1] abbreviates: Mus musculus, topical to ears @ 3% w/v, 24 hours, read-out: Edema % inhibition.
Setting [2] is: topical to ears @ 3% w/v, 24 hours, ear biopsy ELISA.

Regarding `N#Cc1ccc(Oc2ccc3c(c2)COB3O)cc1` [AN2728, reference compound], the inhibition in vivo at 2 % in the experiment on Balb/C mice (Mus musculus, topical @2%, 24 hours, read-out: Edema % inhibition) is 0%. For the same compound, in the experiment on Balb/C mice (dose 0.4 Mg/ear, average±S.E.), the “Edema (% inhibition)” value is given as 17 ± 5%, the “IL-4 (% inhibition)” value is given as 76 ± 9% and the “MPO (% inhibition)” value amounted to 36 ± 12%. Also, the IL-4 (% inhibition) in the experiment on Balb/C mice (topical @2%, 24 hours) is reported as 76 (@2%). For the same compound, in the experiment on IL-31, the IC50 was 0.008 nM.

`C/C(=C\CSCC(NC(=O)NCC(=O)O)C(=O)O)CCCC(C)CCCC(C)CCCC(C)C` (stereo not shown) [A]: the “inhibition of LPS-induced cytokines” value with LPS-induced cytokines is “did not show significant inhibition”. Also, the inhibition in vivo at 3 % strength in the experiment on Balb/C mice (setting [1]) is 44%.

Turning to `C/C(=C\CSC[C@H](NC(=O)N(C)CC(=O)O)C(=O)O)CCCC(C)CCCC(C)CCCC(C)C` (stereo partly drawn) [Compound C, (2R)-2-{[(carboxymethyl)(methyl)carbamoyl]amino}-3-{[(2E)-3,7,11,15-tetramethylhexadec-2-en-1-yl]sulfanyl}propanoic acid], the “inhibition of LPS-induced cytokines” value in the experiment with LPS-induced cytokines is “did not show significant inhibition”. Besides, the hBD3 gene expression with DEFB103 (hBD3) was 9.5 Fold-expression/untreated cells. The inhibition in vivo at 3 % strength in the experiment with Balb/C mice (setting [1]) was 53%. For the same compound, the “Edema (% inhibition)” value in the experiment with Balb/C mice (dose 0.2 Mg/ear, average±S.E.) amounted to 23 ± 4%; in the experiment on Balb/C mice (dose 0.6 Mg/ear, average±S.E.) it was 53 ± 5%; in the experiment on Balb/C mice (dose 1 Mg/ear, average±S.E.), 72 ± 4%. Besides, the “IL-4 (% inhibition)” value worked out at 33 ± 9% in the experiment with Balb/C mice (dose 0.2 Mg/ear, average±S.E.); 41 ± 10% in the experiment with Balb/C mice (dose 0.6 Mg/ear, average±S.E.); 62 ± 11% in the experiment with Balb/C mice (dose 1 Mg/ear, average±S.E.); 41% in the experiment with Balb/C mice (setting [2]). The “MPO (% inhibition)” value in the experiment with Balb/C mice (dose 0.2 Mg/ear, average±S.E.) came out at 22 ± 9%; with Balb/C mice (dose 0.6 Mg/ear, average±S.E.), 67 ± 23%; with Balb/C mice (dose 1 Mg/ear, average±S.E.), 81 ± 5%.

In the case of `C/C(=C\CSC[C@H](NC(=O)N1CCC[C@H]1C(=O)O)C(=O)O)CCCC(C)CCCC(C)CCCC(C)C` (stereo partly shown) [Compound E], the “inhibition of LPS-induced cytokines” value with LPS-induced cytokines is listed as “did not show significant inhibition”. In the experiment on DEFB103 (hBD3), the hBD3 gene expression is 2.9 Fold-expression/untreated cells. For the same compound, in the experiment on Balb/C mice (setting [1]), the inhibition in vivo at 3 % strength stood at 51%. Besides, the “Edema (% inhibition)” value in the experiment on Balb/C mice (dose 0.6 Mg/ear, average±S.E.) was 22%; in the experiment with Balb/C mice (dose 1 Mg/ear, average±S.E.), 51 ± 9%. Moreover, in the experiment on IL-31, the IC50 came to 1 nM.

Take `C/C(=C\CSCC(NC(=O)N(CC(=O)O)CC(=O)O)C(=O)O)CCCC(C)CCCC(C)CCCC(C)C` (stereo not shown) [Compound G]: the hBD3 gene expression in the experiment with DEFB103 (hBD3) is recorded as 4.7 Fold-expression/untreated cells. Also, in the experiment with Balb/C mice (setting [1]), the inhibition in vivo at 3 % strength stood at 41%. Further, in the experiment with Balb/C mice (dose 0.6 Mg/ear, average±S.E.), the “Edema (% inhibition)” value was found to be 41%.

Regarding `C/C(=C\CSC[C@H](NC(=O)COCC(=O)O)C(=O)O)CCCC(C)CCCC(C)CCCC(C)C` (stereo partly shown) [Compound T], in the experiment with LPS-induced cytokines, the “inhibition of LPS-induced cytokines” value is reported as “did not show significant inhibition”. For the same compound, in the experiment on Balb/C mice (setting [1]), the inhibition in vivo at 3 % strength was 31%. For the same compound, the “Edema (% inhibition)” value with Balb/C mice (dose 0.2 Mg/ear, average±S.E.) was 20 ± 4%; with Balb/C mice (dose 0.6 Mg/ear, average±S.E.), 31 ± 6%; in the experiment on Balb/C mice (dose 1 Mg/ear, average±S.E.) it was 53 ± 8%. Further, the “MPO (% inhibition)” value is 30 ± 14% with Balb/C mice (dose 0.2 Mg/ear, average±S.E.); 41 ± 18% in the experiment with Balb/C mice (dose 0.6 Mg/ear, average±S.E.); 71 ± 3% with Balb/C mice (dose 1 Mg/ear, average±S.E.). For the same compound, the IL-4 (% inhibition) in the experiment with Balb/C mice (setting [2]) was 53%. The IC50 in the experiment on IL-31 came out at 1 nM.
